According to patent US20250340561A1, “QUINAZOLINE COMPOUND FOR INDUCING DEGRADATION OF G12D MUTANT KRAS PROTEIN” (Astellas Pharma Inc., priority 2021, published 2025):
Structures can show the parent of a compound that is named as a salt.

These compounds were tested against T1, KRAS G12D (Homo sapiens, UniProt P01116, G12D) (assay: Test Example 1-1: KRAS degradation action in AsPC-1, sandwich ELISA). Details: AsPC-1 cells, 24 hours treatment, corrected with β-actin, 0% = 10 μM Example No. 7.
T1 construct: host or cells: AsPC-1 human pancreatic cancer cells
Type: cell-based
Experimental: Test Example 1-1: Evaluation of KRAS Degradation Action on Human G12D Mutant KRAS-Positive Pancreatic Cancer Line AsPC-1
The KRAS degradation action of test compounds was evaluated by measuring the expression levels of KRAS G12D by a sandwich ELISA method.
AsPC-1 cells (ATCC, CRL-1682) were seeded at 90 μL per well on a 96-well plate (from IWAKI) to give 1.8×10^4 cells per well. As for the cell culture conditions, RPMI 1640 medium (from Merck) containing 10% fetal bovine serum (from Cytiva) was used in the presence of 5% CO2 at 37° C.
The next day, the test compounds (10 points having final concentrations in the range of 10 μM to 0.3 nM) were diluted 100-fold with a fresh medium and were added at 10 μL per well. The same treatments were each applied to 4 wells. In addition, in production of the sandwich ELISA plate, a capture antibody (anti-KRAS antibody, from LS Bio) mixed in Phosphate Buffered Saline [PBS; from FUJIFILM Wako Pure Chemical Corporation] in 1,000-fold dilution was added at 20 μL per well to a Maxisorp 384-well plate (from Thermo Scientific), and after attaching a seal, the plate was allowed to stand at 4° C. overnight.
After 24 hours of the test compound treatment, the culture supernatant was discarded. Immediately, a cytolytic solution (produced by adding, to a RIPA buffer [from Thermo Scientific], a Halt Protease Phosphatese Inhibitor Cocktail [from Thermo Scientific] and Benzonase Nuclease [from Merck] in amounts of 1/100 and 1/500, respectively) was added at 50 μL per well, and the cells were lysed. Then, equally treated 4 wells were combined to prepare a cell lysate sample of 200 μL in total. For KRAS detection, the Maxisorp 384-well plate which had been treated with the capture antibody since the previous day was washed (twice with 25 μL each) with 0.05% Tween-20-containing PBS (from Thermo Scientific; 20×PBS Tween-20 was diluted 20-fold with ion exchange water and used) and was treated with a blocking solution (Intercept Blocking Buffer; from LI-COR Biosciences) for 60 minutes, and then, the cell lysate samples were added at 20 μL per well. For 3-actin detection, the cell lysate samples were added as they were at 20 μL per well to the Maxisorp 384-well plate, and after attaching a seal, the plate was allowed to stand at 4° C. overnight.
The next day, after washing the KRAS detection plate with 0.05% Tween-20-containing PBS, an anti-Ras (G12D mutant specific) antibody (from Cell Signaling Technology) diluted 1,000-fold with a blocking solution was added at 20 μL per well as a detection antibody, and the plate was allowed to stand for 5 hours at room temperature. Then, the plate was centrifuged to remove the supernatant (using a centrifugal dehydrator machine, the supernatant was removed by the same method hereinafter) and was washed with 0.05% Tween-20-containing PBS. Then, an anti-Rabbit IgG […] antibody (from Cell Signaling Technology) diluted 1,000-fold with a blocking solution was added at 20 μL per well as a secondary antibody, and the plate was allowed to stand for 1 hour at room temperature. The plate was centrifuged to remove the supernatant and was washed with 0.05% Tween-20-containing PBS. Then, a BM chemiluminescent ELISA substrate (from Merck) was added at 20 μL per well, and the amounts of luminescence were measured with 2103 EnVision (from PerkinElmer). In addition, the 3-actin detection plate was washed with 0.05% Tween-20-containing PBS and was treated with a blocking solution for 60 minutes, and then, an anti-β-actin antibody (from Abcam) diluted 1,000-fold with a blocking solution was added at 20 μL per well as a detection antibody. The plate was allowed to stand for 5 hours at room temperature. Then, the plate was centrifuged to remove the supernatant and washed with 0.05% Tween-20-containing PBS, and then, an anti-Mouse IgG RP-linked antibody (from Cell Signaling Technology) diluted 1,000-fold with a blocking solution was added at 20 μL per well as a secondary antibody. […]

T1 sequence (P01116 1-188 isoform P01116-2 G12D): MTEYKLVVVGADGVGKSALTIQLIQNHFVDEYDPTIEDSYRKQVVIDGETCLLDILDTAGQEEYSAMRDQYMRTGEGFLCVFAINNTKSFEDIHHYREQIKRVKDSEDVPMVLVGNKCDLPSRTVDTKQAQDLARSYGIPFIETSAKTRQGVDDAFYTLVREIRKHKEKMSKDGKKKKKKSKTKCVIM

In order of rising DC50:
1. CCn1nccc1-c1ccc([C@H](CO)NC(=O)[C@@H]2C[C@@H](O)CN2C(=O)[C@H](C(C)C)n2cc(-c3ccc(COc4c(-c5c(C)c(F)cc6[nH]ncc56)c(C5CC5)cc5c(N6C[C@@H]7C[C@H]6CN7)nc(OC6CCOCC6)nc45)cc3)nn2)cc1 [Example 26]  24 nM
2. Cc1ncsc1-c1ccc([C@H](CO)NC(=O)[C@@H]2C[C@@H](O)CN2C(=O)[C@H](C(C)C)n2cc(-c3ccc(COc4c(-c5c(C)c(F)cc6[nH]ncc56)c(C5CC5)cc5c(N6C[C@@H]7C[C@H]6CN7)nc(O[C@H]6CCOC6)nc45)cc3)nn2)cc1 [Example 29]  33 nM
3. Cc1c(F)cc2[nH]ncc2c1-c1c(C2CC2)cc2c(N3C[C@@H]4C[C@H]3CN4)nc(OC3CCOCC3)nc2c1OCc1ccc(-c2cn([C@H](C(=O)N3C[C@H](O)C[C@H]3C(=O)N[C@@H](CO)c3ccc(-c4ccnn4C)cc3)C(C)C)nn2)cc1 [Example 23]  34 nM
4. Cc1ncsc1-c1ccc([C@H](CO)NC(=O)[C@@H]2C[C@@H](O)CN2C(=O)[C@H](C(C)C)n2cc(-c3ccc(COc4c(-c5c(C)c(F)cc6[nH]ncc56)c(C5CC5)cc5c(N6C[C@@H]7C[C@H]6CN7)nc(OC6CCOCC6)nc45)cc3)nn2)cc1 [Example 8, (4R)-1-[(2S)-2-(4-{4-[({6-cyclopropyl-4-[(1S,4S)-2,5-diazabicyclo[2.2.1]heptan-2-yl]-7-(6-fluoro-5-methyl-1H-indazol-4-yl)-2-[(oxan-4-yl)oxy]quinazolin-8-yl}oxy)methyl]phenyl}-1H-1,2,3-triazol-1-yl)-3-methylbutanoyl]-4-hydroxy-N-{(1R)-2-hydroxy-1-[4-(4-methyl-1,3-thiazol-5-yl)phenyl]ethyl}-L-prolinamide]  37 nM
5. Cc1ncsc1-c1ccc([C@H](CO)NC(=O)[C@@H]2C[C@@H](O)CN2C(=O)[C@H](C(C)C)n2cc(-c3ccc(COc4c(-c5c(C)c(F)cc6[nH]ncc56)c(C5CC5)cc5c(N6C[C@@H]7C[C@H]6CN7)nc(O[C@@H]6CCOC6)nc45)cc3)nn2)cc1 [Example 28]  45 nM
6. Cc1ncsc1-c1ccc([C@H](CO)NC(=O)[C@@H]2C[C@@H](O)CN2C(=O)[C@H](C(C)C)n2cc(-c3ccc(COc4c(-c5c(C)c(F)cc6[nH]ncc56)c(C5CC5)cc5c(N6C[C@@H]7C[C@H]6CN7)nc(OC6COC6)nc45)cc3)nn2)cc1 [Example 27]  55 nM
7. Cc1c(F)cc2[nH]ncc2c1-c1c(C2CC2)cc2c(N3C[C@@H]4C[C@H]3CN4)nc(OC3CCOCC3)nc2c1OCc1ccc(-c2cn([C@H](C(=O)N3C[C@H](O)C[C@H]3C(=O)N[C@@H](CO)c3ccc(-c4ccnn4C)cc3)C(C)C)nn2)cc1 [Example 22]  62 nM
8. Cc1ncsc1-c1ccc([C@H](CF)NC(=O)[C@@H]2C[C@@H](O)CN2C(=O)[C@H](C(C)C)n2cc(-c3ccc(COc4c(-c5c(C)c(F)cc6[nH]ncc56)c(C5CC5)cc5c(N6C[C@@H]7C[C@H]6CN7)nc(OC6CCOCC6)nc45)cc3)nn2)cc1 [Example 17]  92 nM
9. Cc1ncsc1-c1ccc([C@H](CO)NC(=O)[C@@H]2C[C@@H](O)CN2C(=O)[C@H](C(C)C)n2cc(-c3ccc(COc4c(-c5cc(O)cc(F)c5C)c(C5CC5)cc5c(N6C[C@@H]7C[C@H]6CN7)nc(OC6CCOCC6)nc45)cc3)nn2)cc1 [Example 15]  95 nM
10. Cc1c(F)cc2[nH]ncc2c1-c1c(C2CC2)cc2c(N3C[C@@H]4C[C@H]3CN4)nc(OC3CCOCC3)nc2c1OCc1ccc(-c2cn([C@H](C(=O)N3C[C@H](O)C[C@H]3C(=O)N[C@@H](CO)c3ccc(N4CCOC4=O)cc3)C(C)C)nn2)cc1 [Example 20, (4R)-1-[(2S)-2-(4-{4-[({6-cyclopropyl-4-[(1S,4S)-2,5-diazabicyclo[2.2.1]heptan-2-yl]-7-(6-fluoro-5-methyl-1H-indazol-4-yl)-2-[(oxan-4-yl)oxy]quinazolin-8-yl}oxy)methyl]phenyl}-1H-1,2,3-triazol-1-yl)-3-methylbutanoyl]-4-hydroxy-N-{(1R)-2-hydroxy-1-[4-(2-oxo-1,3-oxazolidin-3-yl)phenyl]ethyl}-L-prolinamide]  100 nM
11. Cc1ncsc1-c1ccc(C2(NC(=O)[C@@H]3C[C@@H](O)CN3C(=O)[C@H](C(C)C)n3cc(-c4ccc(COc5c(-c6c(C)c(F)cc7[nH]ncc67)c(C6CC6)cc6c(N7C[C@@H]8C[C@H]7CN8)nc(OC7CCOCC7)nc56)cc4)nn3)CC2)cc1 [Example 6]  103 nM
12. Cc1ncsc1-c1ccc(C2(NC(=O)[C@@H]3C[C@@H](O)CN3C(=O)[C@@H](NC(=O)c3ccc(COc4c(-c5c(C)c(F)cc6[nH]ncc56)c(C5CC5)cc5c(N6C[C@@H]7C[C@H]6CN7)nc(OC6CCOCC6)nc45)cc3)C(C)C)CC2)cc1 [Example 1]  123 nM
13. Cc1ncsc1-c1ccc(CNC(=O)[C@@H]2C[C@@H](O)CN2C(=O)[C@H](C(C)C)n2cc(-c3ccc(COc4c(-c5c(C)c(F)cc6[nH]ncc56)c(C5CC5)cc5c(N6C[C@@H]7C[C@H]6CN7)nc(OC6CCOCC6)nc45)cc3)nn2)cc1 [Example 10]  124 nM
14. Cc1c(F)cc2[nH]ncc2c1-c1c(C2CC2)cc2c(N3C[C@@H]4C[C@H]3CN4)nc(OC3CCOCC3)nc2c1OCc1ccc(-c2cn([C@H](C(=O)N3C[C@H](O)C[C@H]3C(=O)N[C@@H](CO)c3ccc(Br)cc3)C(C)C)nn2)cc1 [Example 12]  136 nM
15. Cc1ncsc1-c1ccc([C@H](CN(C)C)NC(=O)[C@@H]2C[C@@H](O)CN2C(=O)[C@H](C(C)C)n2cc(-c3ccc(COc4c(-c5c(C)c(F)cc6[nH]ncc56)c(C5CC5)cc5c(N6C[C@@H]7C[C@H]6CN7)nc(OC6CCOCC6)nc45)cc3)nn2)cc1 [Example 19]  139 nM
16. Cc1ncsc1-c1ccc([C@H](CO)NC(=O)[C@@H]2C[C@@H](O)CN2C(=O)[C@@H](NC(=O)c2ccc(COc3c(-c4c(C)c(F)cc5[nH]ncc45)c(C4CC4)cc4c(N5C[C@@H]6C[C@H]5CN6)nc(OC5CCOCC5)nc34)cc2)C(C)C)cc1 [Example 3]  140 nM
17. CCOc1nc(N2C[C@@H]3C[C@H]2CN3)c2cc(C3CC3)c(-c3c(C)c(F)cc4[nH]ncc34)c(OCc3ccc(C(=O)N[C@H](C(=O)N4C[C@H](O)C[C@H]4C(=O)N[C@@H](CO)c4ccc(-c5scnc5C)cc4)C(C)C)cc3)c2n1 [Example 5]  153 nM
18. Cc1c(F)cc2[nH]ncc2c1-c1c(C2CC2)cc2c(N3C[C@@H]4C[C@H]3CN4)nc(OC3CCOCC3)nc2c1OCc1ccc(-c2cn([C@H](C(=O)N3C[C@H](O)C[C@H]3C(=O)N[C@@H](CO)c3ccccc3)C(C)C)nn2)cc1 (atropisomer, axis not shown) [Example 14]  221 nM
19. Cc1ncsc1-c1ccc(C2(NC(=O)[C@@H]3C[C@@H](O)CN3C(=O)[C@@H](NC(=O)c3ccc(COc4c(-c5c(C)c(F)cc6[nH]ncc56)c(C5CC5)cc5c(N6C[C@@H]7C[C@H]6CN7)nc(OC6CCOCC6)nc45)cn3)C(C)C)CC2)cc1 [Example 2]  598 nM

Same assay, conditions: AsPC-1 cells, 24 hours treatment, corrected with β-actin, 0% = 10 μM Example No. 7, hydrochloride

In the case of Cc1ncsc1-c1ccc([C@H](CO)NC(=O)[C@@H]2C[C@@H](O)CN2C(=O)[C@H](C(C)C)n2cc(-c3ccc(COc4c(-c5c(C)c(F)cc6[nH]ncc56)c(C5CC5)cc5c(N6C[C@@H]7C[C@H]6CN7)nc(OC6CCOCC6)nc45)cc3)nn2)cc1 [Example 7, (4R)-1-[(2S)-2-(4-{4-[({6-cyclopropyl-4-[(1S,4S)-2,5-diazabicyclo[2.2.1]heptan-2-yl]-7-(6-fluoro-5-methyl-1H-indazol-4-yl)-2-[(oxan-4-yl)oxy]quinazolin-8-yl}oxy)methyl]phenyl}-1H-1,2,3-triazol-1-yl)-3-methylbutanoyl]-4-hydroxy-N-{(1R)-2-hydroxy-1-[4-(4-methyl-1,3-thiazol-5-yl)phenyl]ethyl}-L-prolinamide n hydrochloride], the DC50 was 46 nM.
